Source: PMC5320730, “Synthetic curcumin derivative DK1 possessed G2/M arrest and induced apoptosis through accumulation of intracellular ROS in MCF-7 breast cancer cells” (Cancer Cell International, 2017)

Experiments:
MCF-7 cells [1] = conditions: on MCF-7; cited from earlier work
MDA-MB-231 cells = assay: MTT cell viability assay, MDA-MB-231; format: cell-based, human; conditions: for IC50: Homo sapiens, MDA-MB-231, MTT
Method: (§1) Promyelocytic leukemia HL60, hepatoblastoma HepG2, breast cancer MCF-7 and MDA-MB-231 cells were purchased from ATCC (USA) and cultured in RPMI-1640 media (Sigma, USA), supplemented with 10% fetal bovine serum (FBS) (PAA, USA). Normal epithelial MCF-10A cells (ATCC, USA) was maintain in DMEM-F12 (Sigma, USA) supplemented with hydrocortisone (0.5 μg/mL), insulin (10 μg/mL), human epidermal growth factor (hEGF) (20 ng/mL) (Sigma, USA) and 10% FBS (PAA, USA).
(§2) MTT cell viability assay was used to evaluate the effect of DK1 on viability of HL-60, HepG2, MCF-7, MDA-MB-231 and MCF-10A cells. Briefly, each type of cells (8 × 10^4cells/well) was seeded in 96-well plate in 37 °C CO2 incubator overnight. Then, DK1 was added at concentration ranging between 200 and 3.125 µM by twofold serial dilution. Untreated control was prepared simultaneously. After that, the cells were incubated for 24, 48 and 72 h at 37 °C in 5% CO2 incubator. After the incubation period, all well was added with 20 μL of MTT solution (5 mg/mL) and further incubated for 3 h. Subsequently, 170 μL of supernatant from each well was discarded, 100 μL of dimethyl sulfoxide (DMSO) was added to solubilize the purple formazan crystal and the absorbance was measured at a wavelength of 570 nm by Enzyme-linked immunosorbent assay (ELISA) plate reader (Bio-tek instruments, USA). All cell lines were assayed for three biological replicates each with triplicates. Percentage of cell viability was calculated using the following formula: Cell viability%=OD sample/OD control×100%
(§3) IC50 value (concentration of DK1 that reduce 50% of cell viability compared to control cell) was determined from the graph of cell viability (%) vs DK1 concentration. Subsequently, selective index, which indicating selectivity of DK1 against cancerous and normal breast cell lines, was calculated by: Selective indexSI=IC50of DK1on normal MCF-10A cell line/IC50on breast cancerous cell lineHL60/HepG2/MCF-7/MDA-MB-231

MCF-7 cells [2] = assay: MTT cell viability assay, MCF-7; format: cell-based, human; conditions: for IC50: Homo sapiens, MCF7, MCF-7, MTT
Method: as §1, §2, §3

MCF-10A cells = assay: MTT cell viability assay, normal MCF-10A; format: cell-based; conditions: Homo sapiens
Method: as §1, §2, §3

p53 in MCF-7 cells = assay: Western blot analysis of p53; format: cell-based, human
Method: Total protein was extracted from harvested cell with Radioimmunoprecipitation assay (RIPA) buffer supplemented with phosphatase inhibitor cocktail (Roche, Canada) and the concentration was quantified by Bradford assay (Sigma, USA). Then, 100 μg of extracted protein was subjected to sodium dodecyl sulfate polyacrylamide gel electrophoresis (SDS-PAGE) (Bio-Rad, USA), transferred to nitrocellulose membrane, block with 0.5% skimmed milk overnight, washed with Tris-buffered saline tween (TBST) buffer and incubated with primary antibodies (anti-CDC2, anti-pCDC2 (Tyr15), anti-p53, and anti-β-actin at a dilution of 1:1000 (Abcam, USA) for 1 h. After that, membranes were washed, incubated with 1:5000 diluted goat anti-rabbit IgG H&L conjugated to […] (Abcam, USA) and developed under chemiluminescence condition (Super Signal West Pico, Pierce, USA) using the ChemiDoc XRS (Bio-Rad, USA). Differential level of evaluated protein in control and DK1 treated MCF-7 was calculated based on the bands intensity analyzed using the Quantity One 1D Analysis software (Bio-rad, USA).

MCF-7 cells [3] = assay: Flow cytometry AnnexinV-FITC/PI apoptosis analysis; format: cell-based, human
Method: Apoptosis of DK1 treated MCF-7 was compared with the control cell by Flow cytometry AnnexinV-FITC/PI apoptosis assay. Briefly, harvested cells were resuspended in 100 μL of 1× binding buffer and stained with 5 μL each of AnnexinV-FITC and propidiumiodide. After 15 min of incubation, the cells were added with 400 μL of 1× binding buffer and subjected to BD FACS Calibur flow cytometer analysis using BD Cell Quest Pro software (Becton–Dickinson, USA).

[4] = test system: PLK1, p21 and WEE-1 expression in MCF-7 cells; assay: qRT-PCR of cell cycle related genes; conditions: MCF-7, curcumin 30 µM, 72 h
HL-60 cells = assay: MTT cell viability assay, HL-60; format: cell-based; conditions: Homo sapiens, HL-60, MTT
Method: as §1, §2, §3

HepG2 cells = assay: MTT cell viability assay, HepG2; format: cell-based; conditions: Homo sapiens
Method: as §1, §2, §3

In the case of `O=C1c2ccccc2C(=O)c2c(O)cc(Br)cc21` [BHAQ, 3-Bromo-1-hydroxy-9,10-anthraquinone], the SI value (MCF-7 cells [1]) is given as 2.31.
For `COc1cc(/C=C/C(=O)CC(=O)/C=C/c2ccc(O)c(OC)c2)ccc1O` [Curcumin, diferuloylmethane], the IC50 (MDA-MB-231 cells; 24 h) was 35.3 ± 4.16 µM, the IC50 (MDA-MB-231 cells; 48 h) was 21.7 ± 1.87 µM and the IC50 (MDA-MB-231 cells; 72 h) was 21.7 ± 3.18 µM. For the same compound, the “Selective index of MCF-10A/MDA” value (MDA-MB-231 cells; IC50 MCF-10A / IC50 MDA-MB-231, 24 h) was 5.38, the “Selective index of MCF-10A/MDA” value (MDA-MB-231 cells; IC50 MCF-10A / IC50 MDA-MB-231, 48 h) was 5.25 and the “Selective index of MCF-10A/MDA” value (MDA-MB-231 cells; IC50 MCF-10A / IC50 MDA-MB-231, 72 h) was 4.63. The IC50 (MCF-7 cells [2]; 24 h) was 40.7 ± 3.24 µM, the IC50 (MCF-7 cells [2]; 48 h) was 36.6 ± 2.31 µM and the IC50 (MCF-7 cells [2]; 72 h) was 30.2 ± 2.36 µM. The “Selective index of MCF-10A/MCF-7” value (MCF-7 cells [2]; IC50 MCF-10A / IC50 MCF-7, 24 h) was 4.67, the “Selective index of MCF-10A/MCF-7” value (MCF-7 cells [2]; IC50 MCF-10A / IC50 MCF-7, 72 h) was 3.33 and the IC50 (MCF-10A cells; 24 h) was 190 ± 3.67 µM. The IC50 (MCF-10A cells; 48 h) was 114 ± 3.57 µM, the IC50 (MCF-10A cells; 72 h) was 100 ± 3.17 µM and the “deregulation of apoptosis related genes or proteins, particularly p53, compared to DK1” value (p53 in MCF-7 cells; MCF-7, curcumin 30 µM, 72 h) was “lower degree of deregulation”. The “significant upregulation of p53” value (p53 in MCF-7 cells; curcumin treated MCF-7) was “absent”, the “late apoptosis, folds lower than DK1 treatment” value (MCF-7 cells [3]; MCF-7, 72 h, curcumin 30 µM vs DK1 25 µM) was 2.6 folds and the late apoptosis (MCF-7 cells [3]; MCF-7, curcumin 30 µM, 72 h, AnnexinV/PI) was 15%. For the same compound, the “deregulation of cell cycle regulation related genes compared to DK1” value [4] was “lower degree of deregulation”, the IC50 (HL-60 cells; 24 h) was 57 ± 3.75 µM and the IC50 (HL-60 cells; 48 h) was 29.9 ± 3.11 µM. It also gave an IC50 (HL-60 cells; 72 h) of 21.7 ± 1.76 µM, an IC50 (HepG2 cells; 24 h) of 67.9 ± 2.88 µM and an IC50 (HepG2 cells; 48 h) of 40.7 ± 2.76 µM. It also gave an IC50 (HepG2 cells; 72 h) of 24.4 ± 2.25 µM.
